#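 Assay format: 96-well plates, 48-hour exposure. GI50 = concentration required for 50% inhibition of growth. TGI is the concentration that stops growth completely.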
# Experiments:
# Test in all cases: NCI-60 cell line screen, 48 h
# KM12 colon = system: KM12 colon
# RPMI-8226 leukemia = system: RPMI-8226 leukemia
# UACC-62 melanoma = system: UACC-62 melanoma
# OVCAR-8 ovarian = system: OVCAR-8 ovarian
# NCI/ADR-RES ovarian = system: NCI/ADR-RES ovarian
# MDA-MB-231 breast = system: MDA-MB-231 breast
# 786-0 renal = system: 786-0 renal
# A549 NSCLC = system: A549 NSCLC
# BT-549 breast = system: BT-549 breast
# SF-268 CNS = system: SF-268 CNS
# CAKI-1 renal = system: CAKI-1 renal
# NCI-H522 lung = system: NCI-H522 lung
Structure (SMILES),TGI (KM12 colon) [µM],TGI (RPMI-8226 leukemia) [µM],TGI (UACC-62 melanoma) [µM],TGI (OVCAR-8 ovarian) [µM],TGI (NCI/ADR-RES ovarian) [µM],TGI (MDA-MB-231 breast) [µM],TGI (786-0 renal) [µM],TGI (A549 NSCLC) [µM],TGI (BT-549 breast) [µM],TGI (SF-268 CNS) [µM],TGI (CAKI-1 renal) [µM],TGI (NCI-H522 lung) [µM],GI50 (KM12 colon) [µM],GI50 (CAKI-1 renal) [µM],GI50 (RPMI-8226 leukemia) [µM],GI50 (OVCAR-8 ovarian) [µM],GI50 (NCI/ADR-RES ovarian) [µM],GI50 (A549 NSCLC) [µM],GI50 (BT-549 breast) [µM],GI50 (SF-268 CNS) [µM]
CC(C)(C)OC(=O)NC1CCCC1C(O)(C1=CCCC1)C1=CCCC1 (centres undefined),> 100,> 100,> 100,> 100,> 100,> 100,> 100,> 100,> 100,> 100,,,,,,,,,,
N#CC(c1nc2ccccc2s1)c1nc(Cl)ncc1Br (centres undefined),> 100,81.1,,> 100,> 100,> 100,> 100,> 100,80.5,> 100,> 100,62.1,,,,,,,,
N#Cc1nc(C(F)(F)F)oc1N,> 100,> 100,> 100,> 100,> 100,> 100,> 100,> 100,,> 100,> 100,> 100,,,,,,,,
Cc1ccc(S(=O)(=O)NC(=O)NC(Cc2ccccc2)C(=O)O)cc1 (centres undefined),> 100,> 100,> 100,> 100,> 100,> 100,> 100,> 100,> 100,> 100,,> 100,,,,,,,,
CCSCC(=O)N1CCc2c([nH]c3ccccc23)C1=O,> 100,,> 100,> 100,> 100,> 100,> 100,> 100,> 100,> 100,> 100,> 100,,,,,,,,
CC(=O)Nc1ccc(N2C(=O)CS(=O)(=O)C2c2cccc(Oc3ccccc3)c2)cc1 (centres undefined),47.2,,27.9,41.6,48.7,36,35.7,48.8,32,41.7,,41.9,,,,,,,,
COc1cc2c(cc1OC)C1=Cc3ccc(OC)c(OC)c3C(C#N)N1CC2 (centres undefined),58.7,76.3,45.5,,> 100,81.3,> 100,> 100,63.2,> 100,> 100,> 100,,,,,,,,
CC1(C)CC(=O)C2=C(C1)NC(SCC(=O)O)=C(C#N)C2c1ccc(Br)cc1 (centres undefined),> 100,,> 100,> 100,> 100,> 100,> 100,> 100,> 100,> 100,> 100,> 100,,,,,,,,
O=c1[nH]c(=S)c2cc3c(=S)[nH]c(=O)n(CCC(c4ccccc4)(c4ccccc4)c4ccccc4)c3nc2n1CCC(c1ccccc1)(c1ccccc1)c1ccccc1,> 100,> 100,> 100,,> 100,> 100,> 100,> 100,> 100,> 100,> 100,> 100,,,,,,,,
CC(C)=CC(C)C(C(O)CCC1(c2ccoc2)OCCO1)S(=O)(=O)c1ccccc1 (centres undefined),> 100,> 100,,> 100,> 100,> 100,> 100,> 100,> 100,> 100,> 100,> 100,,,,,,,,
OCc1c2c(cc3c1CC1(C3)Cc3cc4c(c(CO)c3C1)CCC4)CCC2,31.2,47.5,32.6,38,37.8,32.1,27.7,30.9,,,,28.5,,,,,,,,
[N-]=[N+]=NC1=NNC2(C(=O)N1)c1ccccc1-c1ccccc12,,,> 100,> 100,> 100,> 100,> 100,> 100,> 100,> 100,> 100,> 100,,,,,,,,
O=c1[nH]c2nccnc2c2c([N+](=O)[O-])cccc12,> 100,> 100,> 100,> 100,> 100,,> 100,> 100,> 100,> 100,,> 100,,,,,,,,
Cc1c(NC(=S)N/N=C\C(=N/NC(=S)Nc2c(C)n(C)n(-c3ccccc3)c2=O)c2ccccc2)c(=O)n(-c2ccccc2)n1C,> 100,,> 100,,> 100,> 100,> 100,> 100,> 100,> 100,> 100,,,,,,,,,
COC(=O)c1c(O)ccc2c1c1c(n2Cc2ccc(OC)cc2)C(=O)c2ccccc2C1=O,45.3,1.9,,11.7,37.2,,28.5,21.6,3.06,55,86.4,17.1,,,,,,,,
O=C1CSC(c2cccc(Cl)c2)N1c1c(O)c(Cl)cc(Br)c1Cl (centres undefined),> 100,39.4,56.9,,> 100,27.5,71.7,> 100,,> 100,> 100,,,,,,,,,
C\C=C/C=C/C=C/C(=O)O,> 100,> 100,> 100,> 100,,,> 100,> 100,,> 100,> 100,> 100,,,,,,,,
C/C=C1\CN2CCC34c5ccccc5N(C)C35OCC4(C(=O)OC)C1CC25 (centres undefined),> 100,> 100,> 100,,,> 100,> 100,> 100,> 100,> 100,> 100,> 100,,,,,,,,
COc1cc(C(=O)O[C@H](C(=O)NCCNC(=O)[C@@H](OC(=O)c2cc(OC)cc3c(C)cccc23)[C@]2(C)CO2)[C@]2(C)CO2)c2cccc(C)c2c1,0.278,10.6,,0.0683,1.52,,,1.25,3.39,0.191,0.252,,0.0438,0.0563,0.282,< 0.01,0.25,< 0.0428,0.335,< 0.01
Nc1nc2cc(CNc3ccc(C(=O)O)cc3)ccc2nc1-c1ccccc1,,> 100,,> 100,> 100,> 100,> 100,> 100,> 100,> 100,,> 100,,,,,,,,

Structure (SMILES),TGI (KM12 colon) [µM],TGI (RPMI-8226 leukemia) [µM],TGI (UACC-62 melanoma) [µM],TGI (OVCAR-8 ovarian) [µM],TGI (NCI/ADR-RES ovarian) [µM],TGI (MDA-MB-231 breast) [µM],TGI (786-0 renal) [µM],TGI (A549 NSCLC) [µM],TGI (BT-549 breast) [µM],TGI (SF-268 CNS) [µM],TGI (CAKI-1 renal) [µM],TGI (NCI-H522 lung) [µM],GI50 (KM12 colon) [µM],GI50 (CAKI-1 renal) [µM],GI50 (RPMI-8226 leukemia) [µM],GI50 (OVCAR-8 ovarian) [µM],GI50 (NCI/ADR-RES ovarian) [µM],GI50 (A549 NSCLC) [µM],GI50 (BT-549 breast) [µM],GI50 (SF-268 CNS) [µM]
CC(C)=NNc1cnnc2ccc([N+](=O)[O-])cc12,> 100,> 100,,> 100,> 100,> 100,> 100,> 100,> 100,> 100,> 100,52,,,,,,,,
O=C(Nc1ccccc1)c1cc(S(=O)(=O)Nc2n[nH]c(=O)[nH]2)c(SSc2cc(Cl)c(C(=O)Nc3ccccc3)cc2S(=O)(=O)Nc2n[nH]c(=O)[nH]2)cc1Cl,> 100,> 100,,> 100,> 100,> 100,> 100,> 100,> 100,> 100,> 100,> 100,,,,,,,,
CC1=NC2(CCCCC2)N(Cl)C(=O)C1SC#N (centres undefined),42.6,,27.2,32.7,56.2,36.5,31.9,24.8,28.5,33.5,,38.8,,,,,,,,
CCCN=C1Nc2ccccc2[C@@H]2N(C)c3ccccc3C(C)C[C@]12C (some centres undefined),34.9,41.7,33.2,28.9,52,29.8,33.9,> 100,,54.6,84.5,39.8,,,,,,,,
CN1c2ccccc2C(=O)NC12CCN(Cc1ccccc1)CC2,> 100,> 100,> 100,> 100,> 100,> 100,> 100,> 100,,> 100,,,,,,,,,,
Fc1ccc(C2NC(=S)NC3=C2CCOc2c3ccc3ccccc23)cc1 (centres undefined),> 100,> 100,,> 100,76.2,,> 100,> 100,> 100,> 100,> 100,> 100,,,,,,,,
COC(=O)c1c(C)ccc2c(O)c3c(cc12)C(=O)c1c2c(cc(O)c1C3=O)C1(C)OC(C)(O2)C(O)C(N(C)C)C1O (centres undefined),2.97,,8.64,2.27,> 100,3.21,1.95,,10.7,2.7,6.32,2.33,,,,,,,,
CC1(C)C2CCC1(C)C(N/C(=C(/C(Cl)=C(Cl)Cl)[N+](=O)[O-])n1nnc3ccccc31)C2 (centres undefined),87.9,> 100,46,> 100,97.6,53.7,> 100,> 100,48.5,37.9,37,,,,,,,,,
CCn1nc(-c2ccccc2)c2c1N(C)c1ccccc1-n1c(-c3ccccc3)nnc1-2,,> 100,26.6,62.3,40.3,28.6,30.6,29.9,,32.5,,,,,,,,,,
c1ccc2c(c1)nc1n2CCNC1,> 100,> 100,> 100,> 100,> 100,> 100,> 100,> 100,> 100,> 100,> 100,,,,,,,,,
C/C=C1/CN2[C@@H](C3=C[C@@H]4[C@@H]5N(C3=O)c3ccccc3[C@@]53CCN5C/C(=C/C)[C@@H]4C[C@H]53)C[C@@]34c5ccccc5N5C(=O)CC=C([C@H]1C[C@H]23)[C@H]54,17,,9.1,13.1,33.6,9.19,7.8,15.3,15.7,14.1,15.7,14.6,,,,,,,,
c1nncn1C12C3C4C5C3C1C5C42 (centres undefined),> 100,> 100,,> 100,> 100,> 100,> 100,> 100,> 100,> 100,,> 100,,,,,,,,
OC12C3C4CC5C(C4[C@@H]1Br)C2[C@@](O)(c1c(F)c(F)c(F)c(F)c1F)C53 (some centres undefined),34.5,,> 100,> 100,85.9,> 100,> 100,> 100,> 100,> 100,43.8,> 100,,,,,,,,
N#CN=C1c2ccccc2C(=NC#N)c2cc(CO)ccc21,> 100,31,,> 100,83.6,> 100,> 100,> 100,95.6,> 100,> 100,> 100,,,,,,,,
O=C1C=C(N2CCCC2)C(=O)c2c(O)ccc(O)c21,> 10,,> 10,> 10,,> 10,> 10,> 10,> 10,> 10,,,,,,,,,,
Cc1ccc(C2(N3CCCC3)OC(C)(C)c3cccc4cccc2c34)cc1 (centres undefined),> 100,71.9,27.5,29.8,30.1,,37.6,24.6,31.3,25.8,36.5,25.6,,,,,,,,
O=S(=O)(O)c1ccc2c(N=Nc3ccccc3)c(O)c(S(=O)(=O)O)cc2c1,> 100,,> 100,> 100,> 100,> 100,> 100,> 100,> 100,> 100,> 100,> 100,,,,,,,,
CCN(CC)c1ccc(/C=c2\nc(-c3ccccc3)n3c2nc2ccccc23)cc1,> 100,6.3,30.9,> 100,26.6,> 100,> 100,> 100,72.2,> 100,9.72,,,,,,,,,
CC(=O)N1CC(C)(C)c2c1cc(C)c(O)c2C,> 100,> 100,> 100,> 100,> 100,> 100,> 100,> 100,,> 100,,> 100,,,,,,,,
O=C(Nc1ccc(Cl)cc1)c1cccc([N+](=O)[O-])c1O,> 62.4,7.2,17.6,> 69.8,,,> 56.7,> 100,,> 85,17.1,6.36,,,,,,,,

# — PubChem BioAssay (NCI)
